Data: patent US8252832B2, “Kinesin inhibitors as cancer therapeutics” (Novartis AG, priority 2007, dated 2012)
Where two headings read alike, the source gives them in different places.

Assays:
Assay type in all cases: cell-based
[1] = test system: NCI60 panel of cell lines; assay: CellTiter-Glo, NCI60 panel, mean of panel
Description: Identification of tumor types that are the most sensitive to the KSP inhibitors of the present invention can be accomplished using an unbiased approach that uses several cell-based assays. The assays chosen were as follows: • CellTiter-Glo®. This is an assay designed to measure ATP concentration in a cell culture, and can be correlated to cell number. Briefly CellTiter-Glo® (Promega Corporation) is a homogeneous method using the single CellTiter-Glo® reagent to detect ATP wherein ATP in the assay drives the activity of a thermostable luciferase to create a luminescent signal which can then be measured and correlated with the number of viable cells. Briefly, for adherent cells, 1,000 to 5,000 cells/well were plated in 96-well plates (100 μl/well) and let to adhere for 24 hours before being treated with drug. For non-adherent cells, 1,000 to 10,000 cells/well were plated in 96-well plates (100 μl/well) and immediately treated with drug. Drug dilutions were prepared in DMSO at 1000 times the final concentration. These dilutions were then diluted 1/100 in growth media before being added to the cells (11 μl/well) to achieve the desired final concentration. […] The enzymatic reaction is coupled to a chemical reaction that uses a tetrazolium salt to form a formazan that is red and can be detected by its absorbance at 490 nm. […]

SEM-Luc = assay: CellTiter-Glo, hematologic malignancy panel; details: ALL
Description: (§1) Identification of tumor types that are the most sensitive to the KSP inhibitors of the present invention can be accomplished using an unbiased approach that uses several cell-based assays. The assays chosen were as follows: • CellTiter-Glo®. This is an assay designed to measure ATP concentration in a cell culture, and can be correlated to cell number. Briefly CellTiter-Glo® (Promega Corporation) is a homogeneous method using the single CellTiter-Glo® reagent to detect ATP wherein ATP in the assay drives the activity of a thermostable luciferase to create a luminescent signal which can then be measured and correlated with the number of viable cells. Briefly, for adherent cells, 1,000 to 5,000 cells/well were plated in 96-well plates (100 μl/well) and let to adhere for 24 hours before being treated with drug. For non-adherent cells, 1,000 to 10,000 cells/well were plated in 96-well plates (100 μl/well) and immediately treated with drug. Drug dilutions were prepared in DMSO at 1000 times the final concentration. These dilutions were then diluted 1/100 in growth media before being added to the cells (11 μl/well) to achieve the desired final concentration. After 48 h in a 37° C. tissue culture incubator, the plates were processed for the CellTiter-Glo®assay according to the manufacturer's instructions. Protocol for a 72 hour cell proliferation assay: The 72 hour assay was performed the same way as the 48 hour assay except for the following modifications: For adherent cells, 500 to 5,000 cells/well were plated in 96-well plates (90 μl/well cell growth media) and left to adhere for 24 hours before being treated with drug. For non-adherent cells, 1,000 to 10,000 cells/well were plated in 96-well plates (90 μl/well cell growth media) and immediately treated with drug. Data values presented represent the concentration of test compound required for a 50% reduction in growth. • LDH release. The Cytotoxicity Detection KitPLUS (LDH) assay (Roche Diagnostics, Manheim, Germany) measures the amount of LDH released in the media by dying cells; LDH catalyzes the conversion of lactate into pyruvate. The enzymatic reaction is coupled to a chemical reaction that uses a tetrazolium salt to form a formazan that is red and can be detected by its absorbance at 490 nm. This assay measures the amount of cell death after drug treatment. Cells were plated at 10,000 cells/well in 96-well plates (100 μl/well). Adherent cells were let to adhere for 24 hours before being treated with drug, whereas non-adherent cells were immediately treated with drug. Drug dilutions were prepared in DMSO at 1000 times the final concentration. These dilutions were then diluted 1/100 in growth media before being added to the cells (11 μl/well) to achieve the desired final concentration. After 48 h in a 37° C. tissue culture incubator, the plates were processed for the Cytotoxicity Detection KitPLUS (LDH) assay according to the manufacturer's instructions. The media only values were subtracted from all the data points before analysis. Data values presented correspond to the compound concentration wherein LDH output is at half maximal level. • Caspase-Glo® 3/7. The Caspase-Glo® 3/7 Assay (Promega Corporation) is a homogeneous luminescent assay that measures caspase-3/7 activities. The assay provides a proluminescent caspase-3/7 DEVD-aminoluciferin substrate and a thermostable luciferase in a reagent optimized for caspase-3/7 activity, luciferase activity and cell lysis. Adding the single Caspase-Glo® 3/7 Reagent results in cell lysis, followed by caspase cleavage of the substrate. This liberates free aminoluciferin, which is consumed by the luciferase, generating a luminescent signal. The signal is proportional to caspase-3/7 activity. Data values presented correspond to the compound concentration wherein caspase 3/7 activity is at half maximal level. […]

KMS26 = assay: CellTiter-Glo, hematologic malignancy panel; details: for GI50: KMS-26, MM
Description: as §1

AML-193 = assay: CellTiter-Glo, hematologic malignancy panel
Description: as §1

LP1 = assay: CellTiter-Glo, hematologic malignancy panel; details: for GI50: Homo sapiens, LP-1, MM
Description: as §1

U937 = assay: CellTiter-Glo, hematologic malignancy panel; details: for GI50: Homo sapiens, U-937, NHL
Description: as §1

SUDHL-4 = assay: CellTiter-Glo, hematologic malignancy panel; details: for GI50: Homo sapiens, SU-DHL-4, NHL
Description: as §1

RS4; 11 = assay: CellTiter-Glo, hematologic malignancy panel; details: ALL; for GI50: Homo sapiens
Description: as §1

H929-Luc = assay: CellTiter-Glo, hematologic malignancy panel; details: MM
Description: as §1

MOLT-4 = assay: CellTiter-Glo, hematologic malignancy panel; details: ALL; for GI50: Homo sapiens
Description: as §1

[2] = GI50 in nM, read-out: Log(GI50) (converted)

CC(C)(C)[C@H](c1nc(-c2cc(F)ccc2F)cn1Cc1ccccc1)N(CC[C@H](N)CF)C(=O)CO [Compound IIa]
GI50 ([1]; GI50 in nM, read-out: Log(GI50), arithmetic mean of panel (converted)): 2.14 nM | GI50 ([1]; read-out: GI50, geometric mean of panel): 2.14 nM | Differential vs mean Log(GI50) (SEM-Luc): 0.354 | GI50 (SEM-Luc; [2]): 0.15 nM | GI50 (SEM-Luc; read-out: GI50): 0.15 nM | GI50 (KMS26; [2]): 0.24 nM | GI50 (KMS26; read-out: GI50): 0.24 nM | Differential vs mean Log(GI50) (KMS26; MM): 0.150 | Differential vs mean Log(GI50) (AML-193): 0.489 | GI50 (AML-193; [2]): 0.11 nM | GI50 (AML-193; read-out: GI50): 0.11 nM | GI50 (LP1; [2]): 0.205 nM | GI50 (LP1; read-out: GI50): 0.21 nM | Differential vs mean Log(GI50) (LP1; MM): 0.218 | GI50 (U937; [2]): 0.2 nM | GI50 (U937; read-out: GI50): 0.2 nM | Differential vs mean Log(GI50) (U937; NHL): 0.229 | GI50 (SUDHL-4; [2]): 0.447 nM | GI50 (SUDHL-4; read-out: GI50): 0.45 nM | Differential vs mean Log(GI50) (SUDHL-4; NHL): −0.120 | Differential vs mean Log(GI50) (RS4; 11): 0.530 | GI50 (RS4; 11; [2]): 0.1 nM | GI50 (RS4; 11; read-out: GI50): 0.1 nM | Differential vs mean Log(GI50) (H929-Luc): −0.697 | GI50 (H929-Luc; [2]): 1.69 nM | GI50 (H929-Luc; read-out: GI50): 1.69 nM | Differential vs mean Log(GI50) (MOLT-4): 0.010 | GI50 (MOLT-4; [2]): 0.331 nM | GI50 (MOLT-4; read-out: GI50): 0.33 nM
